“And” between values parts separate entries of the source, which are not always exact repeats. Equal entries are not always repeated. After the bases stand the sugars from the 5' end (letter, count) and the backbone: PS all phosphorothioate, else s phosphorothioate and o phosphodiester by linkage. Methylation of C is not given here. e = 2'-O-(2-methoxyethyl) (MOE); k = constrained ethyl (cEt); d = 2'-deoxy (DNA)
Target: SOD1
Conditions: ASO

## CCCACACCTTCACTGG (sugars ekddddddddekekee, linkages s1 o1 s8 o3 s2)
A431, 0.12 µM
  target mRNA inhibition: 2%
A431, 0.6 µM
  target mRNA inhibition: 0%
A431, 3 µM
  target mRNA inhibition: 0%
A431, 15 µM
  target mRNA inhibition: 12%
HepG2, 0.222 µM
  target mRNA inhibition: 15%
HepG2, 0.667 µM
  target mRNA inhibition: 31%
HepG2, 2 µM
  target mRNA inhibition: 58%
HepG2, 6 µM
  target mRNA inhibition: 81%

## CTCGCCCACTCTGGCCCCAA (sugars e5 d10 e5, PS)
HepG2, 4 µM
  target mRNA inhibition: 45%

## AGTGTTTAATGTTTATC (sugars ekekddddddddeeeee, linkages s1 o2 s9 o2 s2)
A431, 0.062 µM
  target mRNA inhibition: 24%
A431, 0.185 µM
  target mRNA inhibition: 37%
A431, 0.556 µM
  target mRNA inhibition: 57%
A431, 1.667 µM
  target mRNA inhibition: 77%
A431, 5 µM
  target mRNA inhibition: 81%
A431, 15 µM
  target mRNA inhibition: 86%
SH-SY5Y, 0.062 µM
  target mRNA inhibition: 3%
SH-SY5Y, 0.185 µM
  target mRNA inhibition: 6%
SH-SY5Y, 0.556 µM
  target mRNA inhibition: 48%
SH-SY5Y, 1.667 µM
  target mRNA inhibition: 69%
SH-SY5Y, 5 µM
  target mRNA inhibition: 77%
SH-SY5Y, 15 µM
  target mRNA inhibition: 87%

## AGACATTTTAACTGAGT (sugars e2 k2 d9 k2 e2, PS)
HepG2, 5 µM
  target mRNA inhibition: 53%

## ATTTCCACCTTTGCCCAAGT (sugars e5 d10 e5, PS)
HepG2, 4 µM
  target mRNA inhibition: 56%
HepG2, 12 µM
  target mRNA inhibition: 84%

## TCCAAGTGATCATAAAT (sugars e2 k2 d9 k2 e2, PS)
HepG2, 5 µM
  target mRNA inhibition: 39%

## GCCCAAGTCATCTGCTT (sugars e3 k2 d7 k2 e3, PS)
HepG2, 3 µM
  target mRNA inhibition: 93%

## CATGCAGGCCTTCAGTC (sugars e3 k2 d7 k2 e3, PS)
HepG2, 3 µM
  target mRNA inhibition: 41%

## TTAATGTTTATCAGGAT (sugars e2 k2 d8 k2 e3, linkages s1 o2 s9 o2 s2)
A431, 0.12 µM
  target mRNA inhibition: 12%
A431, 0.6 µM
  target mRNA inhibition: 36%
A431, 3 µM
  target mRNA inhibition: 49%
A431, 15 µM
  target mRNA inhibition: 72%
HepG2, 0.222 µM
  target mRNA inhibition: 67%
HepG2, 0.667 µM
  target mRNA inhibition: 90%
HepG2, 2 µM
  target mRNA inhibition: 97%
HepG2, 6 µM
  target mRNA inhibition: 94%

## AGGATTAAAGTGAGGAC (sugars e3 k2 d7 k2 e3, PS)
HepG2, 3 µM
  target mRNA inhibition: 23%

## CAGGATAACAGATGAGT (sugars e2 k2 d9 k2 e2, PS)
HepG2, 0.1875 µM
  target mRNA inhibition: 56%
HepG2, 0.75 µM
  target mRNA inhibition: 89%
HepG2, 3 µM
  target mRNA inhibition: 93%
HepG2, 4 µM
  target mRNA inhibition: 96%
HepG2, 12 µM
  target mRNA inhibition: 96%

## TTACTTTCCTTCTGCTC (sugars e3 k2 d7 k2 e3, PS)
HepG2, 3 µM
  target mRNA inhibition: 22%

## ATTGGGCGATCCCAATT (sugars e2 k2 d8 k2 e3, PS)
HepG2, 4 µM
  target mRNA inhibition: 2%

## CAAACCAGCACCCCGTCTCC (sugars e5 d10 e5, PS)
HepG2, 4 µM
  target mRNA inhibition: 13%

## GGCCTCAGACTACATCC (sugars e2 k2 d8 k2 e3, PS)
HepG2, 4 µM
  target mRNA inhibition: 70%

## GCCGTCGCCCTTCAGCA (sugars e2 k2 d8 k2 e3, PS)
HepG2, 4 µM
  target mRNA inhibition: 64%

## TGCAGGCCTTCAGTCAGTCC (sugars e5 d10 e5, PS)
HepG2, 5 µM
  target mRNA inhibition: 42% and 46%

## GAGGTCCTGGTTCCGAGGAC (sugars e5 d10 e5, PS)
HepG2, 4 µM
  target mRNA inhibition: 31%

## CAGGATACATTTCTACAG (sugars e5 d8 e5, linkages s1 o3 s9 o2 s2)
A431, 0.12 µM
  target mRNA inhibition: 2%
A431, 0.6 µM
  target mRNA inhibition: 31%
A431, 3 µM
  target mRNA inhibition: 9%
A431, 15 µM
  target mRNA inhibition: 18%
HepG2, 0.222 µM
  target mRNA inhibition: 14%
HepG2, 0.667 µM
  target mRNA inhibition: 31%
HepG2, 2 µM
  target mRNA inhibition: 54%
HepG2, 6 µM
  target mRNA inhibition: 84%

## CTAGCAGGATAACAGAT (sugars e3 k2 d7 k2 e3, PS)
HepG2, 3 µM
  target mRNA inhibition: 39%

## ATGTTTATCAGGATACA (sugars e2 k2 d8 k2 e3, PS)
HepG2, 0.1875 µM
  target mRNA inhibition: 40%
HepG2, 0.75 µM
  target mRNA inhibition: 75%
HepG2, 3 µM
  target mRNA inhibition: 92%
HepG2, 4 µM
  target mRNA inhibition: 85% and 86%
HepG2, 12 µM
  target mRNA inhibition: 95% and 98%

## TTCCAAGTGATCATAAATCA (sugars e5 d10 e5, PS)
HepG2, 5 µM
  target mRNA inhibition: 18%

## GGATACATTTCTACAGC (sugars e2 k2 d9 k2 e2, linkages s1 o3 s9 o1 s2)
A431, 0.12 µM
  target mRNA inhibition: 4%
A431, 0.6 µM
  target mRNA inhibition: 12%
A431, 3 µM
  target mRNA inhibition: 36%
A431, 15 µM
  target mRNA inhibition: 51%
HepG2, 0.222 µM
  target mRNA inhibition: 62%
HepG2, 0.667 µM
  target mRNA inhibition: 78%
HepG2, 2 µM
  target mRNA inhibition: 95%
HepG2, 6 µM
  target mRNA inhibition: 91%
